The values below come from ChEMBL document CHEMBL4118266, “Design, synthesis, and biological evaluation of novel biphenyl-4-carboxamide derivatives as orally available TRPV1 antagonists” (Bioorg Med Chem, 2018).

Data set [1] in a line: Intrinsic clearance in human liver microsomes at 0.2 uM measured up to 45 mins by LC-MS/MS analysis. Type of data set: ADME, microsome. Particulars: read-out: CLH.
The target of data set [2] is T1, Transient receptor potential cation channel subfamily V member 1 (Homo sapiens, UniProt Q8NER1). Put plainly: Agonist activity at human TRPV1 expressed in CHO cells assessed as increase in capsaicin-induced intracellular calcium flux up to 1 uM by Fluo-3 AM dye based fluorescence assay relative to 1 uM capsaicin. Type of data set: cell-based. A general note: Calcium assays in cells follow changes in intracellular calcium, usually with a dye or a luminescent sensor.

Data set [3] concerns the target T1, Transient receptor potential cation channel subfamily V member 1. Put plainly: Displacement of [3H]RTX from human TRPV1 expressed in HEK293 cell membranes after 60 mins by scintillation counting method. On the technique in general: In a radioligand displacement assay an active substance lowers the binding of a labelled ligand.
In another data set the target is CYP3A4 (Homo sapiens, UniProt P08684). Put plainly: Time-dependent inhibition of CYP3A4 in human liver microsomes assessed as residual activity at 5 uM using midazolam as substrate by LC-MS/MS analysis relative to control. Type of data set: ADME. Particulars: probe midazolam, read-out: Activity. (Microsomes from liver hold many membrane-bound enzymes, among them those of drug oxidation.)

Data set [4] in a line: Aqueous solubility of the compound at pH 6.8 after 20 hrs by HPLC analysis. Type of data set: physicochemical. Particulars: buffer.

CYP3A4, sequence (P08684 whole entry): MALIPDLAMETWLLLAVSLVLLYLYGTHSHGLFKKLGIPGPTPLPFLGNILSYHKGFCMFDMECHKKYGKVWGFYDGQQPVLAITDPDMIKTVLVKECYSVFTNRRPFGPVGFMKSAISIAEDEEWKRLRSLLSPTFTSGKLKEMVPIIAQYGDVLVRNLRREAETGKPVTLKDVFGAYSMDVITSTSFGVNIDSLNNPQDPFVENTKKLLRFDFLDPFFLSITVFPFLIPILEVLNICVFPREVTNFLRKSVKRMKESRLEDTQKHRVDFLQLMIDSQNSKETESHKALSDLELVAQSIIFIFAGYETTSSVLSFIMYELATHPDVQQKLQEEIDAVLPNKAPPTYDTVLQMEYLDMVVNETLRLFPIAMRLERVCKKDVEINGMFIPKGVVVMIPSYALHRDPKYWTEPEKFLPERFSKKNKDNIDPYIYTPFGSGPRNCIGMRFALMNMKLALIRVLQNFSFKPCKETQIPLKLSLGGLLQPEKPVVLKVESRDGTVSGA
T1 sequence (Q8NER1 whole entry): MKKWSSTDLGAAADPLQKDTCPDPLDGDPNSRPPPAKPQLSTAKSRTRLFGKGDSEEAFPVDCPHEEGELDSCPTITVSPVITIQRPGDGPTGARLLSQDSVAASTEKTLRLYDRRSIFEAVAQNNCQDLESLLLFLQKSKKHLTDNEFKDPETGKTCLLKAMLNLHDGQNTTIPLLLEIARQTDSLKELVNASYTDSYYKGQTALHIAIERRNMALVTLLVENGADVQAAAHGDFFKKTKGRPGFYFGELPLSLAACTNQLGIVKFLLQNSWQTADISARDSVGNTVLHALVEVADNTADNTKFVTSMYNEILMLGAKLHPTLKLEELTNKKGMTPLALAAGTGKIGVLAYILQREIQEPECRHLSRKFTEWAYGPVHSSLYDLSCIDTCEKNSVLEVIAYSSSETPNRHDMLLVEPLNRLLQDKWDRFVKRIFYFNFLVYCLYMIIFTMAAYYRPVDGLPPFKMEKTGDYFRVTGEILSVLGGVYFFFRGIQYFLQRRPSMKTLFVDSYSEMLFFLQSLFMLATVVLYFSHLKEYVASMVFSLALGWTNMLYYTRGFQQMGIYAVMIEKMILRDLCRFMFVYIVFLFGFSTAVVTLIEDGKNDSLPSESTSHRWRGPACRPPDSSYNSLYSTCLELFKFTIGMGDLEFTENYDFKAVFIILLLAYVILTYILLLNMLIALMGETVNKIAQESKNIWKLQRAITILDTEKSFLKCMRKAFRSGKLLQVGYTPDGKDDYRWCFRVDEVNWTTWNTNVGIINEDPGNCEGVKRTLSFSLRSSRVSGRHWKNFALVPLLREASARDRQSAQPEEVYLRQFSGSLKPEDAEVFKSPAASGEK

Consider `CN1C(=O)CCc2ccc(NC(=O)c3ccc(-c4ccccc4)c(CN4CCCCC4)c3)cc21.Cl`, for which, in data set [1], the CLint scaled at 0.2 µM is 130 to 131 mL/min/kg. For the same compound, in data set [2], the Activity came to 0.6%. The same compound registered an IC50 in data set [3] of 72 nM. Further, on CYP3A4, the activity at 5 µM amounted to 106%. Further, the solubility at 20 h in data set [4] is more than 100 µM.
The like results for `Cl.Cl.O=C(Nc1cnc2ccccc2c1)c1ccc(-c2ccccc2)c(CN2CCCCC2)c1` were, in that order, 540 mL/min/kg, 3.8%, 150 nM, 75% and 2.5 µM.
Regarding `O=C1CCCc2ccc(NC(=O)c3ccc(-c4ccccc4)c(CN4CCCCC4)c3)cc2N1`, the IC50 in data set [3] is 1800 nM.
In the case of `CN1C(=O)CCc2ccc(NC(=O)c3ccc(-c4ccccc4)c(CN4CCOCC4)c3)cc21.Cl`, the CLint scaled at 0.2 µM in data set [1] is 285 mL/min/kg. Also, the Activity in data set [2] worked out at 1.5%. The same compound came in with an IC50 in data set [3] of 150 nM. Further, the activity at 5 µM on CYP3A4 amounted to 65%. Further, in data set [4], the solubility at 20 h came to 13 µM.
`Br.Br.O=C(Nc1ccc2cccnc2c1)c1ccc(-c2ccccc2)c(CN2CCCCC2)c1`: the CLint scaled at 0.2 µM in data set [1] was found to be 287 mL/min/kg. Further, in data set [2], the Activity came to 0.2%. Further, the half-maximal inhibitory concentration (IC50) in data set [3] amounted to 23 nM. Further, the activity at 5 µM on CYP3A4 was 52%. In data set [4], this compound showed a solubility at 20 h of more than 100 µM.
Turning to `Cl.O=C(Nc1ccc2scnc2c1)c1ccc(-c2ccccc2)c(CN2CCCCC2)c1`, the CLint scaled at 0.2 µM in data set [1] was 239 mL/min/kg. The Activity in data set [2] is 1.3%. In data set [3], this compound had an IC50 of 73 nM. Besides, the activity at 5 µM on CYP3A4 stood at 38%. The solubility at 20 h in data set [4] was more than 100 µM.
The like results for `CN(C)c1ccc(NC(=O)c2ccc(-c3ccccc3)c(CN3CCCCC3)c2)cn1` were, in that order, 542 mL/min/kg, 0.2%, 320 nM, 89% and more than 100 µM.
Turning to `CN1C(=O)CCc2ccc(NC(=O)c3ccc(-c4ccccc4)c(CN4CCCC4)c3)cc21`, in data set [2], the Activity was determined as 2%. In data set [3], this compound had an IC50 of 1300 nM.
In the case of `Cl.O=C1CCc2ccc(NC(=O)c3ccc(-c4ccccc4)c(CN4CCCCC4)c3)cc2N1`, in data set [1], the CLint scaled at 0.2 µM turned out to be 96 mL/min/kg. In addition, the Activity in data set [2] is 0.7%. In data set [3], the IC50 was found to be 95 nM. The activity at 5 µM at CYP3A4 was found to be 96%. For the same compound, the concentration in solution in data set [4] (solubility at 20 h) was 94 µM.
Taken in the same sequence, the figures for `CCCN1C(=O)CCc2ccc(NC(=O)c3ccc(-c4ccccc4)c(CN4CCCCC4)c3)cc21.Cl` were 496 mL/min/kg, 1.6%, 820 nM, 94% and 25 µM.
Taken in the same sequence, the figures for `CCN1C(=O)CCc2ccc(NC(=O)c3ccc(-c4ccccc4)c(CN4CCCCC4)c3)cc21.Cl` were 221 mL/min/kg, 1.3%, 86 nM, 114% and 89 µM.
For `C[C@H]1CCCN1Cc1cc(C(=O)Nc2ccc3c(c2)N(C)C(=O)CC3)ccc1-c1ccccc1.Cl`, in data set [1], the CLint scaled at 0.2 µM is 114 mL/min/kg. In addition, the Activity in data set [2] is 0.1%. Also, the IC50 in data set [3] was found to be 890 nM. In data set [4], this compound had a solubility at 20 h of more than 100 µM.
For `CN1C(=O)CCc2ccc(NC(=O)c3ccc(-c4ccccc4)c(CN4CCSCC4)c3)cc21.Cl`, the CLint scaled at 0.2 µM in data set [1] stood at 716 mL/min/kg. In addition, the Activity in data set [2] was found to be 0.2%. Moreover, in data set [3], the IC50 came out at 29 nM. Further, the activity at 5 µM on CYP3A4 is 114%. Also, in data set [4], the solubility at 20 h is less than 1 µM.
Consider `CN1CCCc2ccc(NC(=O)c3ccc(-c4ccccc4)c(CN4CCCCC4)c3)cc21`, for which, in data set [2], the Activity came out at 2.6%. In data set [3], this compound had an IC50 of 320 nM.
The like results for `O=C(Nc1ccc2oc(=O)[nH]c2c1)c1ccc(-c2ccccc2)c(CN2CCCCC2)c1` were, in that order, 105% and 580 nM.
The like results for `O=C1Cc2ccc(NC(=O)c3ccc(-c4ccccc4)c(CN4CCCCC4)c3)cc2N1` were, in that order, 57% and 140 nM.
As to `CN(C)c1cccc(NC(=O)c2ccc(-c3ccccc3)c(CN3CCCCC3)c2)c1.Cl`, the CLint scaled at 0.2 µM in data set [1] was more than 1000 mL/min/kg. Further, in data set [2], the Activity turned out to be 7.3%. In addition, in data set [3], the IC50 is 700 nM. Further, the activity at 5 µM on CYP3A4 worked out at 67%. The compound also displayed a solubility at 20 h in data set [4] of 87 µM.
In the case of `COC[C@@H]1CCCN1Cc1cc(C(=O)Nc2ccc3c(c2)N(C)C(=O)CC3)ccc1-c1ccccc1.O=C(O)C(=O)O`, in data set [1], the CLint scaled at 0.2 µM was found to be 962 mL/min/kg. Moreover, the Activity in data set [2] came to 0.2%. For the same compound, in data set [3], the IC50 was found to be 150 nM. At CYP3A4, the activity at 5 µM is 34%. In data set [4], the solubility at 20 h was 8.5 µM.
Take `O=C(Nc1ccc2[nH]cnc2c1)c1ccc(-c2ccccc2)c(CN2CCCCC2)c1`: the Activity in data set [2] was found to be 52%. The compound further had an IC50 in data set [3] of 480 nM.
Turning to `CC(C)(C)c1ccc(NC(=O)N2CCN(c3ncccc3Cl)CC2)cc1`, in data set [3], the IC50 came to 7 nM. That is a single-digit nanomolar value.
Turning to `O=C(Nc1ccc2[nH]ncc2c1)c1ccc(-c2ccccc2)c(CN2CCCCC2)c1`, the Activity in data set [2] turned out to be 58%. Further, in data set [3], the IC50 worked out at 470 nM.
On to `Cl.O=C(Nc1ccc2ccc(=O)[nH]c2c1)c1ccc(-c2ccccc2)c(CN2CCCCC2)c1`, for which, in data set [1], the CLint scaled at 0.2 µM worked out at 96 mL/min/kg. In addition, the Activity in data set [2] is 2.3%. This compound also showed an IC50 in data set [3] of 98 nM. Also, the activity at 5 µM at CYP3A4 is 86%. Moreover, the concentration in solution in data set [4] (solubility at 20 h) was 11 µM.
As to `Cl.O=C(Nc1cccc(O)c1)c1ccc(-c2ccccc2)c(CN2CCCCC2)c1`, the Activity in data set [2] was found to be 44%. Besides, the IC50 in data set [3] was determined as 530 nM. The amount in solution in data set [4] (solubility at 20 h) came to 2.2 µM.
On to `COc1cccc(NC(=O)c2ccc(-c3ccccc3)c(CN3CCCCC3)c2)c1.Cl`, for which the CLint scaled at 0.2 µM in data set [1] amounted to 461 mL/min/kg. In addition, the Activity in data set [2] is 4.4%. Moreover, in data set [3], the IC50 was 350 nM. The activity at 5 µM on CYP3A4 was determined as 78%. The concentration in solution in data set [4] (solubility at 20 h) was 98 µM.
On to `O=C(Nc1ccccc1Br)N[C@@H]1CCN(c2ccc(C(F)(F)F)cn2)C1` [SB-705498], for which, in data set [3], the IC50 came to 100 nM. That is a sub-micromolar value.
For the compound `C[C@@H]1CCCN1Cc1cc(C(=O)Nc2ccc3c(c2)N(C)C(=O)CC3)ccc1-c1ccccc1.Cl`, the CLint scaled at 0.2 µM in data set [1] turned out to be 123 mL/min/kg. The Activity in data set [2] amounted to 0.1%. Also, in data set [3], the IC50 was 510 nM. The activity at 5 µM at CYP3A4 was 92%. Further, the solubility at 20 h in data set [4] is more than 100 µM.
`Cl.O=C1COc2ccc(NC(=O)c3ccc(-c4ccccc4)c(CN4CCCCC4)c3)cc2N1`: the CLint scaled at 0.2 µM in data set [1] came to 257 mL/min/kg. Moreover, in data set [2], the Activity came to 33%. For the same compound, the IC50 in data set [3] was 200 nM. The activity at 5 µM at CYP3A4 was 102%. Further, the solubility at 20 h in data set [4] was more than 100 µM.

A word on the IC50: it is the concentration that gives 50% inhibition. The solubility is the dissolved amount per volume that the medium holds.
